Results published in patent US20250339391A1, “METHODS FOR EFFECTIVE MANAGEMENT OF PAIN” (South Rampart Pharma, Inc., priority 2024, published 2025).
Entries after “also recorded” stand apart in the source; their conditions may differ.

Assays:
[1] = system: conscious male Sprague-Dawley rats; test: Pulmonary function evaluation in conscious male Sprague-Dawley rats (GLP); format: in vivo, rat; conditions: 220, 440 and 660 mg/kg oral
Description: The potential effects of orally administered SRP-001 on respiratory rate, tidal volume, and minute volume in conscious male Sprague-Dawley rats was studied in 24 male rats. The rodents were trained for two days in the head-out plethysmograph chamber for 15-17 min each prior to the experiment. On the day of dosing, each animal was weighed and placed in the plethysmograph chamber, and baseline respiratory parameters were obtained for 5 min following an approximately 5-min stabilization period. The rats were then removed from the chamber and dosed by oral gavage. Three groups of six male Sprague-Dawley rats each were orally administered SRP-001 at a single dose of 220, 440, or 660 mg/kg at a dose volume of 10 mL/kg. […] Following dosing, each animal was returned to its designated plethysmograph chamber, and the respiratory parameters were recorded at 30 min (±5 min), 2, 4, and 6 h (±15 min). Animals were allowed to stabilize in the plethysmograph chamber for at least 5 min before each reading was taken. The following parameters were acquired, recorded, and analyzed using Ponemah Physiology Platform (Ponemah v.5.20 Pulmonary); Respiratory rate, Tidal Volume, and Minute Volume, Values for the test article treated group were compared to the vehicle control values using a two-way repeated measures ANOVA followed by a Bonferroni Multiple Comparison Test (SigmaStat, v. 4.0). […]

Beagle dogs [2] = test: Dose-range-finding oral toxicity study in Beagle dogs, Phase I (non-GLP); format: in vivo, dog
Description: 3) A Dose-Range-Finding and 7-day Repeat-Dose Oral Toxicity Study of SRP-001 in Beagle dogs (Non-GLP) Two beagle dogs (1/sex) were administered 30, 100, 250, or 500 mg/kg SRP-001. […] After a period of at least 2 d (minimum of 44 h) following the previous dose of test article, additional dose levels of SRP-001, as indicated above, were administered by oral gavage to the same 2 dogs (1 male and 1 female). Each dose was based on the dog's most recent body weight. Mortality/morbidity was observed twice daily and once prior to scheduled sacrifice. Body weights were recorded prior to randomization/selection, prior to each dose administration, and prior to scheduled sacrifice. At scheduled sacrifice, a gross necropsy was performed, and the tissues were appropriately discarded. […] Doses for Phase II of the study were set based on Phase I results. The actual dose amounts selected for Phase II of the study were 0, 30, 100, or 300 mg/kg/d of SRP-001. These doses were administered once daily for seven consecutive days to 1 Beagle dog/sex/dose.

Beagle dogs [3] = conditions: dog, in vivo
Description: 8) A 28-day Oral Toxicity Study of SRP-001 in Beagle Dogs with a 14-day Recovery (GLP study) SRP-001 was supplied by Olon Ricerca Bioscience as an off-white powder. The test article was then prepared into dosing suspensions for oral administration via gavage (Calvert Labs/Altasciences, Scott Township, PA USA). Thirty-two experimentally naïve Beagle dogs (16 males and 16 females), 8-9 months old and weighing 6.7-10.5 kg for males and females at the outset of the study, were administered 0, 165, 330, or 495 mg/kg/d. Animals were dosed three times daily (3-5 h between doses) for 28 consecutive days. Prior to this dosing schedule, the dosing was initiated with once daily dosing at 0, 100, 300, or 900 mg/kg at a dose volume of 5 to 10 ml/kg. Due to adverse clinical signs noted following dosing of all groups at a dose volume of 10 ml/kg, dosing of the animals was suspended on day 2 for males and day 1 for females. The study was restarted with T.I.D. dosing in lower dose volume to reduce vehicle-related toxicity.
In-life data from the initial start of the study using once daily dosing were not included in the report but are maintained in the study file. Following the restart of the study, the study was conducted as follows. Mortality/morbidity was performed twice daily and once prior to the scheduled sacrifice. Animals were observed prior to each dose administration and 1-3 h after each dose administration. Animals were also observed once daily on non-dosing days and once prior to scheduled sacrifice. Body weights were recorded prior to randomization/selection, prior to the first dose administration on day 1 and weekly thereafter. Food consumption was determined daily. Ophthalmology examinations and electrocardiograms were performed before treatment initiation and during the last week of dosing. Blood for evaluation of hematology, coagulation and clinical chemistry and urine for urinalysis was collected prior to treatment initiation and on days 29 and 43. Blood for toxicokinetic evaluation was collected at selected timepoints on days 1 and 28. All surviving animals were sacrificed on day 29 or day 43. Selected tissues were harvested at necropsy, selected organs weighed, and selected tissues evaluated microscopically.

CCN(CC)C(=O)c1ccccc1S(=O)(=O)NCC(=O)Nc1ccc(O)cc1 [SRP-001, N,N-diethyl-2-[[2-(4-hydroxyanilino)-2-oxo-ethyl]sulfamoyl]benzamide] was tested, and the “effects on respiratory rate, tidal volume, minute volume” value [1] was “no effects on pulmonary function or cardio-telemetry; also recorded: did not induce any significant effects”, the “body weight and food consumption” value (Beagle dogs [2]; 30, 100, 250 or 500 mg/kg) was “No test article-related effects” and the clinical signs (Beagle dogs [2]; 30, 100, 250 or 500 mg/kg oral gavage) was “Loose feces and emesis were observed following most doses”. The “reversibility after 14-d recovery” value (Beagle dogs [3]; both, Beagle, 14 d) was “nearly all SRP-001-related changes observed on day 29 were reversible”, the no-adverse-effect level (Beagle dogs [3]; both, Beagle, 28 d) was 330 mg/kg/day and the “doses without treatment-related adverse effects” value (Beagle dogs [3]; both, Beagle, po, 28 d) was “up to 330 mg/kg/day”. The hematology finding (Beagle dogs [3]) was “regenerative anemia”.
